Assay results published in article PMC12738789, “Synthesis of an enhanced nanobiocatalyst system from Aspergillus niger as single green source” (Scientific Reports, 2025).

System: T1, Aspergillus niger ATCC 16,878 lipase
T1 construct: gene lipA
Experiment: spectrophotometric p-nitrophenol release at […] nm, nonlinear Michaelis-Menten fit
Assay type: biochemical
Settings: free enzyme; 0.1-1 mM pNPP; standard assay 0.1 M potassium phosphate pH 7.5, 37 °C, 2% Triton X-100

Work on `CCCCCCCCCCCCCCCC(=O)Oc1ccc([N+](=O)[O-])cc1` [4-nitrophenyl palmitate] yielded a Km of 147 µM.
